Patent US11389415B2, “Methods of regulating cannabinoid receptor activity-related disorders and diseases” (The United States of America as represented by the …, priority 2012, dated 2022)

Tested on: rat C6 glioma xenografts
Experiment: Gene expression profiling (microarray, GO term and PAGE gene set analysis) in rat C6 glioma xenografts
Assay type: in vivo, mouse
Conditions: MNF_Control
Method: Analysis of gene expression in rat C6 glioma xenografts. Total RNA was isolated from rat C6 glioma xenografts harvested from vehicle and MNF-treated mice (n=3 per group, cohort 1). This analysis was repeated in a second cohort of animals (n=3 per group, cohort 2). Total cellular RNA was extracted using an RNeasy plus mini kit (QIAGEN, Valencia, Calif.), and its quality was assessed using an Agilent BioAnalyzer using RNA 6000 Nano Chips (Agilent Technologies, Santa Clara, Calif.). Transcriptional profiling was determined using Illumina Sentrix BeadChips (Illumina, San Diego, Calif.). Total RNA was used to generate biotin-labeled cRNA with the Illumina TotalPrep RNA Amplification Kit. In short, 0.5 ug of total RNA was first converted into single-stranded cDNA with reverse transcriptase using an oligo-dT primer containing the T7 RNA polymerase promoter site and then copied to produce double-stranded cDNA molecules. The double-stranded cDNA was cleaned and concentrated with the supplied columns and used in an overnight in-vitro transcription reaction where single-stranded RNA (cRNA) was generated incorporating biotin-16-UTP. A total of 0.75 μg of biotin-labeled cRNA was hybridized at 58° C. for 16 hours to Illumina's Sentrix Rat Ref-12 Expression BeadChips. Each BeadChip has ˜22,000 well-annotated RefSeq transcripts with approximately 30-fold redundancy. The arrays were washed, blocked and the labeled cRNA was detected by staining with streptavidin-Cy3. Hybridized arrays were scanned using an Illumina BeadStation 500× Genetic Analysis Systems scanner and the image data extracted using Illumina's GenomeStudio software, version 1.6.1. For statistical analysis, the expression data were filtered to include only probes with a consistent signal on each chip and an Illumina detecton p value <0.02.
Correlation analysis, sample clustering analysis and principal component analysis was performed to identify/exclude any possible outliers. The resulting dataset was next analyzed with DIANE 6.0, a spreadsheet-based microarray analysis program using value statistics for Z-Score reliability below 0.05; and mean background-corrected signal intensity greater than zero.
Gene set enrichment analysis use gene expression values or gene expression change values for all of the genes in the microarray. Parametric analysis of gene set enrichment (PAGE) was used using the WEB-PAGE GSA tool for gene set analysis. Gene Sets include the MSIG database, Gene Ontology Database, GAD human disease and mouse phenotype gene sets were used to explore functional level changes. Gene-gene interaction was also analyzed using the INGENUITY® Pathway Analysis (IPA) system (INGENUITY® Systems).

Compound: COc1ccc(C[C@@H](C)NC[C@H](O)c2cc(O)cc(O)c2)c2ccccc12 [(R,R′)-MNF, (R,R′)-4′-methoxy-1-naphthylfenoterol]
- Z score, ADIP_DIFF_CLUSTERS (cohort 1): −4.6054
- Z score, ATRBRCAPATHWAY (cohort 1): −1.8815
- Z score, BRCA_PROGNOSIS_NEG (cohort 1): −3.2974
- Z score, BRENTANI_REPAIR (cohort 1): −3.8568
- Z score, CANCER_UNDIFFERENTIATED_META_UP (cohort 1): −4.8288
- Z score, CELL_CYCLE (cohort 1): −5.0187
- Z score, CELL_CYCLE_KEGG (cohort 1): −4.1925
- Z score, CMV_IE86_UP (cohort 1): −6.1497
- Z score, CROONQUEST_IL6_STARVE_UP (cohort 1): −6.5055
- Z score, CROONQUIST_IL6_RAS_DN (cohort 1): −6.7147
- Z score, DAC_FIBRO_DN (cohort 1): −4.4476
- Z score, DNA_REPLICATION_REACTOME (cohort 1): −3.8683
- Z score, DOX_RESIST_GASTRIC_UP (cohort 1): −5.8557
- Z score, E2F1_DNA_UP (cohort 1): −3.6781
- Z score, GAY_YY1_DN (cohort 1): −7.6370
- Z score, GOLDRATH_HP (cohort 1): −2.4433
- Z score, HDACI_COLON_BUT12 HRS_UP (cohort 1): 5.3212
- Z score, HDACI_COLON_BUT16HRS_UP (cohort 1): 3.6723
- Z score, HDACI_COLON_BUT24HRS_UP (cohort 1): 3.0864
- Z score, HDACI_COLON_TSABUT_UP (cohort 1): 4.1465
- Z score, HIPPOCAMPUS_DEVELOPMENT_POSTNATAL (cohort 1): 3.6731
- Z score, HOFFMANN_BIVSBII_BI_TABLE2 (cohort 1): −5.1273
- Z score, HYPOPHYSECTOMY_RAT_DN (cohort 1): 3.6187
- Z score, IDX_TSA_UP_CLUSTER3 (cohort 1): −6.1057
- Z score, IRITANI_ADPROX_LYMPH (cohort 1): −5.1468
- Z score, KAMMINGA_EZH2_TARGETS (cohort 1): −5.3211
- Z score, KENNY_WNT_UP (cohort 1): −4.0135
- Z score, LAMB_CYCLIN_D3_GLOCUS (cohort 1): −2.8637
- Z score, LEE_TCELLS2_UP (cohort 1): −4.1051
- Z score, LEE_TCELLS3_UP (cohort 1): −7.2409
- Z score, LI_FETAL_VS_WT_KIDNEY_DN (cohort 1): −5.4447
- Z score, MANALO_HYPOXIA_DN (cohort 1): −3.2723
- Z score, MIDDLEAGE_DN (cohort 1): −3.6696
- Z score, MOREAUX_TACI_HI_IN_PPC_UP (cohort 1): −2.9881
- Z score, MOREAUX_TACI_HI_VS_LOW_DN (cohort 1): −4.3721
- Z score, OLDAGE_DN (cohort 1): −4.5391
- Z score, P21_P53_ANY_DN (cohort 1): −5.0275
- Z score, PEART_HISTONE_DN (cohort 1): −2.5055
- Z score, PODI_KO_UP (cohort 1): −3.9363
- Z score, PRMT5_KD_UP (cohort 1): −9.3903
- Z score, REN_E2F1_TARGETS (cohort 1): −2.9150
- Z score, SASAKI_ATL_UP (cohort 1): −5.0963
- Z score, SASAKI_TCELL_LYMPHOMA_VS_CD4_UP (cohort 1): −5.0963
- Z score, SERUM_FIBROBLAST_CELLCYCLE (cohort 1): −7.2985
- Z score, SHEPARD_BMYB_MORPHOLINO_DN (cohort 1): −4.3350
- Z score, SHEPARD_CRASH_AND_BURN_MUT_VS_WT_DN (cohort 1): −3.9994
- Z score, SHEPARD_GENES_COMMON_BW_CB_MO (cohort 1): −4.0300
- Z score, STEMCELL_NEURAL_UP (cohort 1): −6.0983
- Z score, TARTE_MATURE_PC (cohort 1): 3.6636
- Z score, TARTE_PLASMA_BLASTIC (cohort 1): −4.8905
- Z score, VERNELL_PRB_CLSTR1 (cohort 1): −3.4691
- Z score, YU_CMYC_UP (cohort 1): −4.4689
- Z score, ZHAN_MM_CD138_PR_VS_REST (cohort 1): −6.1404
- Z score, ADIP_DIFF_CLUSTERS (cohort 2): −6.8850
- Z score, ATRBRCAPATHWAY (cohort 2): −2.9977
- Z score, BRCA_PROGNOSIS_NEG (cohort 2): −5.4682
- Z score, BRENTANI_REPAIR (cohort 2): −2.9453
- Z score, CANCER_UNDIFFERENTIATED_META_UP (cohort 2): −6.2847
- Z score, CELL_CYCLE (cohort 2): −7.4222
- Z score, CELL_CYCLE_KEGG (cohort 2): −7.0955
- Z score, CMV_IE86_UP (cohort 2): −6.5954
- Z score, CROONQUEST_IL6_STARVE_UP (cohort 2): −9.0059
- Z score, CROONQUIST_IL6_RAS_DN (cohort 2): −7.7040
- Z score, DAC_FIBRO_DN (cohort 2): −4.9523
- Z score, DNA_REPLICATION_REACTOME (cohort 2): −6.5700
- Z score, DOX_RESIST_GASTRIC_UP (cohort 2): −8.6145
- Z score, E2F1_DNA_UP (cohort 2): −4.4885
- Z score, GAY_YY1_DN (cohort 2): −4.7456
- Z score, GOLDRATH_HP (cohort 2): −2.2875
- Z score, HDACI_COLON_BUT12 HRS_UP (cohort 2): 3.6676
- Z score, HDACI_COLON_BUT16HRS_UP (cohort 2): 3.4287
- Z score, HDACI_COLON_BUT24HRS_UP (cohort 2): 3.3154
- Z score, HDACI_COLON_TSABUT_UP (cohort 2): 3.4480
- Z score, HIPPOCAMPUS_DEVELOPMENT_POSTNATAL (cohort 2): 10.3312
- Z score, HOFFMANN_BIVSBII_BI_TABLE2 (cohort 2): −7.7114
- Z score, HYPOPHYSECTOMY_RAT_DN (cohort 2): 3.9294
- Z score, IDX_TSA_UP_CLUSTER3 (cohort 2): −10.1593
- Z score, IRITANI_ADPROX_LYMPH (cohort 2): −3.3728
- Z score, KAMMINGA_EZH2_TARGETS (cohort 2): −7.2448
- Z score, KENNY_WNT_UP (cohort 2): −5.5586
- Z score, LAMB_CYCLIN_D3_GLOCUS (cohort 2): −4.3054
- Z score, LEE_TCELLS2_UP (cohort 2): −5.6671
- Z score, LEE_TCELLS3_UP (cohort 2): −8.0339
- Z score, LI_FETAL_VS_WT_KIDNEY_DN (cohort 2): −9.1715
- Z score, MANALO_HYPOXIA_DN (cohort 2): −6.1956
- Z score, MIDDLEAGE_DN (cohort 2): −7.7600
- Z score, MOREAUX_TACI_HI_IN_PPC_UP (cohort 2): −3.8456
- Z score, MOREAUX_TACI_HI_VS_LOW_DN (cohort 2): −3.2936
- Z score, OLDAGE_DN (cohort 2): −7.1043
- Z score, P21_P53_ANY_DN (cohort 2): −7.4300
- Z score, PEART_HISTONE_DN (cohort 2): −5.2170
- Z score, PODI_KO_UP (cohort 2): −4.3565
- Z score, PRMT5_KD_UP (cohort 2): −5.4620
- Z score, REN_E2F1_TARGETS (cohort 2): −3.5319
- Z score, SASAKI_ATL_UP (cohort 2): −5.5299
- Z score, SASAKI_TCELL_LYMPHOMA_VS_CD4_UP (cohort 2): −5.5299
- Z score, SERUM_FIBROBLAST_CELLCYCLE (cohort 2): −10.6997
- Z score, SHEPARD_BMYB_MORPHOLINO_DN (cohort 2): −4.7947
- Z score, SHEPARD_CRASH_AND_BURN_MUT_VS_WT_DN (cohort 2): −4.0540
